# Values of other authors, collected in PubChem BioAssay AID1259409 (Chemical Carcinogenesis Research Information System (CCRIS), 2018).
# “And” between values parts separate entries of the source, which are not always exact repeats. Identical values can stand only once.
# Tested on: rodent chemically induced tumor inhibition, incidence and multiplicity
# Test: CCRIS tumor inhibitor studies
smiles,measurement,setting,value
O=c1cc(-c2ccccc2)oc2ccc3ccccc3c12,"tumour outcome (control, treated, inhibition, significance)","Carcinogen: 2-AMINO-1-METHYL-6-PHENYLIMIDAZO[4,5-B]PYRIDINE [105650-23-5], Dose [Inhibitor]: 1000 PPM IN DIET FOR 4 WK BEGINNING WK PRIOR TO FIRST CARCINOGEN DOSE (STUDY DURATION: 25 WK), Route [Inhibitor]: ORAL, Species: RAT, Strain/Sex: SPRAGUE-DAWLEY/FEMALE, Target Tissue: Type of Lesion: MAMMARY GLAND: FIBROADENOMA OR DUCTAL CARCINOMA, Dose [Carcinogen]: 85 MG/KG BW 2X/WK FOR 4 WK (STUDY DURATION: 25 WK), Promoter: NONE","67.7%, 12.5%, 82%, p<0.001"
same,"tumour outcome (control, treated, inhibition, significance)","Carcinogen: 7,12-DIMETHYLBENZ[A]ANTHRACENE [57-97-6], Dose [Inhibitor]: 500 PPM IN DIET FOR 10 WK BEGINNING 1 WK PRIOR TO FIRST CARCINOGEN DOSE (STUDY DURATION: 11 MONTHS), Route [Inhibitor]: ORAL, Species: FISH, Strain/Sex: RAINBOW TROUT/MALE, FEMALE, Target Tissue: Type of Lesion: LIVER: TUMOR, Dose [Carcinogen]: 800 PPM IN DIET FOR 9 WK (STUDY DURATION: 11 MONTHS), Promoter: NONE","4%, 7%, -75%, not significant"
same,"tumour outcome (control, treated, inhibition, significance)","Carcinogen: 7,12-DIMETHYLBENZ[A]ANTHRACENE [57-97-6], Dose [Inhibitor]: 500 PPM IN DIET FOR 10 WK BEGINNING 1 WK PRIOR TO FIRST CARCINOGEN DOSE (STUDY DURATION: 11 MONTHS), Route [Inhibitor]: ORAL, Species: FISH, Strain/Sex: RAINBOW TROUT/MALE, FEMALE, Target Tissue: Type of Lesion: STOMACH: TUMOR, Dose [Carcinogen]: 800 PPM IN DIET FOR 9 WK (STUDY DURATION: 11 MONTHS), Promoter: NONE","92%, 28%, 70%, p<0.001"
same,"tumour outcome (control, treated, inhibition, significance)","Carcinogen: 7,12-DIMETHYLBENZ[A]ANTHRACENE [57-97-6], Dose [Inhibitor]: 500 PPM IN DIET FOR 10 WK BEGINNING 1 WK PRIOR TO FIRST CARCINOGEN DOSE (STUDY DURATION: 11 MONTHS), Route [Inhibitor]: ORAL, Species: FISH, Strain/Sex: RAINBOW TROUT/MALE, FEMALE, Target Tissue: Type of Lesion: SWIM BLADDER: TUMOR, Dose [Carcinogen]: 800 PPM IN DIET FOR 9 WK (STUDY DURATION: 11 MONTHS), Promoter: NONE","46%, 27%, 41%, p<0.001"
same,"tumour outcome (control, treated, inhibition, significance)","Carcinogen: 7,12-DIMETHYLBENZ[A]ANTHRACENE, 57-97-6, Dose [Inhibitor]: 100 UG APPLIED ONCE 5 MIN BEFORE DMBA (STUDY DURATION: 28 WK), Route [Inhibitor]: DERMAL, Species: MOUSE, Strain/Sex: CD-1/FEMALE, Target Tissue: Type of Lesion: SKIN: PAPILLOMA, Dose [Carcinogen]: 2.56 UG APPLIED ONCE 5 MIN AFTER INHIBITOR, Promoter: 12-O-TETRADECANOYLPHORBOL-13-ACETATE, 16561-29-8","82%, 65%, 21%, not calculated"
same,"tumour outcome (control, treated, inhibition, significance)","Carcinogen: 7,12-DIMETHYLBENZ[A]ANTHRACENE, 57-97-6, Dose [Inhibitor]: 1000 UG APPLIED ONCE 5 MIN BEFORE DMBA (STUDY DURATION: 28 WK), Route [Inhibitor]: DERMAL, Species: MOUSE, Strain/Sex: CD-1/FEMALE, Target Tissue: Type of Lesion: SKIN: PAPILLOMA, Dose [Carcinogen]: 2.56 UG APPLIED ONCE 5 MIN AFTER INHIBITOR, Promoter: 12-O-TETRADECANOYLPHORBOL-13-ACETATE, 16561-29-8","82%, 60%, 27%, not calculated"
same,"tumour outcome (control, treated, inhibition, significance)","Carcinogen: DIETHYLNITROSAMINE, 55-18-5, Dose [Inhibitor]: 500 PPM IN DIET FOR 6 WK PRIOR TO CARCINOGEN DOSE (STUDY DURATION: 48 WK), Route [Inhibitor]: ORAL, Species: FISH, Strain/Sex: MT. SHASTA RAINBOW/MALE, FEMALE, Target Tissue: Type of Lesion: LIVER: HEPATOCELLULAR CARCINOMA AND HEPATOCHOLANGIOCELLULAR CARCINOMA, Dose [Carcinogen]: 250 PPM AQUEOUS SOLUTION FOR 24 HR, Promoter: NONE USED","105/131 (80%), 90/98 (92%), -15%, p=0.0102"
same,"tumour outcome (control, treated, inhibition, significance)","Carcinogen: N-NITROSOETHYLUREA, 759-73-9, Dose [Inhibitor]: 0, 150 MG/KG IN OLIVE OIL 48 HR PRIOR TO CARCINOGEN DOSE (STUDY DURATION: 8 WK), Route [Inhibitor]: INTRAPERITONEAL, Species: MOUSE, Strain/Sex: AKR/FEMALE, Target Tissue: Type of Lesion: LUNG: TUMOR, Dose [Carcinogen]: 8 MG/KG IN 0.22 MOLAR SODIUM CITRATE BUFFER 1/WK FOR 4 WK, Promoter: NONE USED","8/32 (25%), 8/35 (23%), 8%, not calculated"
same,"tumour outcome (control, treated, inhibition, significance)","Carcinogen: N-NITROSOETHYLUREA, 759-73-9, Dose [Inhibitor]: 0, 150 MG/KG IN OLIVE OIL 48 HR PRIOR TO CARCINOGEN DOSE (STUDY DURATION: 8 WK), Route [Inhibitor]: INTRAPERITONEAL, Species: MOUSE, Strain/Sex: C3H/HE/FEMALE, Target Tissue: Type of Lesion: LUNG: TUMOR, Dose [Carcinogen]: 8 MG/KG IN 0.22 MOLAR SODIUM CITRATE BUFFER 1/WK FOR 4 WK, Promoter: NONE USED","26/33 (79%), 25/29 (86%), -9%, not calculated"
same,"tumour outcome (control, treated, inhibition, significance)","Carcinogen: N-NITROSOETHYLUREA, 759-73-9, Dose [Inhibitor]: 0, 150 MG/KG IN OLIVE OIL 48 HR PRIOR TO CARCINOGEN DOSE (STUDY DURATION: 8 WK), Route [Inhibitor]: INTRAPERITONEAL, Species: MOUSE, Strain/Sex: C57BL/FEMALE, Target Tissue: Type of Lesion: LUNG: TUMOR, Dose [Carcinogen]: 8 MG/KG IN 0.22 MOLAR SODIUM CITRATE BUFFER 1/WK FOR 4 WK, Promoter: NONE USED","9/35 (26%), 17/29 (57%), -119%, not calculated"
same,"tumour outcome (control, treated, inhibition, significance)","Carcinogen: N-NITROSOETHYLUREA, 759-73-9, Dose [Inhibitor]: 0, 150 MG/KG IN OLIVE OIL 48 HR PRIOR TO CARCINOGEN DOSE (STUDY DURATION: 8 WK), Route [Inhibitor]: INTRAPERITONEAL, Species: MOUSE, Strain/Sex: DBA/FEMALE, Target Tissue: Type of Lesion: LUNG: TUMOR, Dose [Carcinogen]: 8 MG/KG IN 0.22 MOLAR SODIUM CITRATE BUFFER 1/WK FOR 4 WK, Promoter: NONE USED","12/34 (35%), 15/34 (44%), -26%, not calculated"
same,"tumour outcome (control, treated, inhibition, significance)","Carcinogen: N-NITROSOETHYLUREA, 759-73-9, Dose [Inhibitor]: 0, 150 MG/KG IN OLIVE OIL 48 HR PRIOR TO CARCINOGEN DOSE (STUDY DURATION: 8 WK), Route [Inhibitor]: INTRAPERITONEAL, Species: MOUSE, Strain/Sex: SWISS/FEMALE, Target Tissue: Type of Lesion: LUNG: TUMOR, Dose [Carcinogen]: 8 MG/KG IN 0.22 MOLAR SODIUM CITRATE BUFFER 1/WK FOR 4 WK, Promoter: NONE USED","26/27 (96%), 12/16 (75%), 22%, not calculated"
same,"tumour outcome (control, treated, inhibition, significance)","Dose [Inhibitor]: 0, 0.015% IN DIET FOR 9 WK BEGINNING 1 WK PRIOR TO AND CONTINUING DURING CARCINOGEN TREATMENT (STUDY DURATION: 42 WK), Route [Inhibitor]: ORAL, Species: RAT, Strain/Sex: F344/MALE, Target Tissue: Type of Lesion: LIVER: HEPATOMA, Dose [Carcinogen]: 25 UG 5 D/WK FOR 8 WK, Promoter: NONE USED","15/15 (100%), 4/16 (25%), 75%, not calculated and 15/15 (100%), 5/15 (31%), 69%, not calculated"
same,"tumour outcome (control, treated, inhibition, significance)","Dose [Inhibitor]: 0, 50 PPM IN DIET BEGINNING 8 WK PRIOR TO CARCINOGEN AND CONTINUING FOR 6 WK POST CARCINOGEN (STUDY DURATION: 68 WK), Route [Inhibitor]: ORAL, Species: FISH, Strain/Sex: RAINBOW TROUT, Target Tissue: Type of Lesion: LIVER: HEPATOCELLULAR CARCINOMA, Dose [Carcinogen]: 20 PPB IN DIET FOR 2 WK, Promoter: NONE USED","43/118 (36%), 20/117 (17%), 53%, p<0.05"
same,"tumour outcome (control, treated, inhibition, significance)","Dose [Inhibitor]: 0, 500 PPM IN DIET BEGINNING 8 WK PRIOR TO CARCINOGEN AND CONTINUING FOR 6 WK POST CARCINOGEN (STUDY DURATION: 68 WK), Route [Inhibitor]: ORAL, Species: FISH, Strain/Sex: RAINBOW TROUT, Target Tissue: Type of Lesion: LIVER: HEPATOCELLULAR CARCINOMA, Dose [Carcinogen]: 20 PPB IN DIET FOR 2 WK, Promoter: NONE USED","43/118 (36%), 7/120 (6%), 84%, p<0.01"
same,outcome,"Dose [Inhibitor]: 0.005% IN DIET BEGINNING 4 WK PRIOR TO CARCINOGEN DOSE AND CONTINUING FOR 4 ADDITIONAL WK CONCURRENTLY WITH CARCINOGEN D, Route [Inhibitor]: ORAL, Species: FISH, Strain/Sex: MT. SHASTA RAINBOW TROUT, Target Tissue: Type of Lesion: LIVER: CHOLANGIOCELLULAR CARCINOMA OR ADENOMA, Dose [Carcinogen]: 10 PPB IN DIET FOR 4 WK, Promoter: NONE USED","0/166, 1/177, 0%"
same,"tumour outcome (control, treated, inhibition, significance)","Dose [Inhibitor]: 0.005% IN DIET BEGINNING 4 WK PRIOR TO CARCINOGEN DOSE AND CONTINUING FOR 4 ADDITIONAL WK CONCURRENTLY WITH CARCINOGEN D, Route [Inhibitor]: ORAL, Species: FISH, Strain/Sex: MT. SHASTA RAINBOW TROUT, Target Tissue: Type of Lesion: LIVER: HEPATOCELLULAR CARCINOMA OR MIXED CARCINOMA OR HEPATOCELLULAR ADENOMA, Dose [Carcinogen]: 10 PPB IN DIET FOR 4 WK, Promoter: NONE USED","39/166 (23%), 7/177 (4%), 83%, p<0.01"
same,"tumour outcome (control, treated, inhibition, significance)","Dose [Inhibitor]: 0.005% IN DIET FOR 8 WK (STUDY DURATION: 1 YR), Route [Inhibitor]: ORAL, Species: FISH, Strain/Sex: MT. SHASTA RAINBOW TROUT, Target Tissue: Type of Lesion: LIVER: CHOLANGIOCELLULAR CARCINOMA OR ADENOMA, Dose [Carcinogen]: 0.5 PPM AQUEOUS SOLUTION FOR 30 MIN EXPOSURE OF EMBRYOS 21 D AFTER FERTILIZATION, Promoter: NONE USED","8/182 (4%), 7/175 (4%), 0%, not calculated"
same,outcome,"Dose [Inhibitor]: 0.05% IN DIET BEGINNING 4 WK PRIOR TO CARCINOGEN DOSE AND CONTINUING FOR 4 ADDITIONAL WK CONCURRENTLY WITH CARCINOGEN DO, Route [Inhibitor]: ORAL, Species: FISH, Strain/Sex: MT. SHASTA RAINBOW TROUT, Target Tissue: Type of Lesion: LIVER: CHOLANGIOCELLULAR CARCINOMA OR ADENOMA, Dose [Carcinogen]: 10 PPB IN DIET FOR 4 WK, Promoter: NONE USED","0/166 (0%), 0/172 (0%)"
same,"tumour outcome (control, treated, inhibition, significance)","Dose [Inhibitor]: 0.05% IN DIET BEGINNING 4 WK PRIOR TO CARCINOGEN DOSE AND CONTINUING FOR 4 ADDITIONAL WK CONCURRENTLY WITH CARCINOGEN DO, Route [Inhibitor]: ORAL, Species: FISH, Strain/Sex: MT. SHASTA RAINBOW TROUT, Target Tissue: Type of Lesion: LIVER: HEPATOCELLULAR CARCINOMA OR MIXED CARCINOMA OR HEPATOCELLULAR ADENOMA, Dose [Carcinogen]: 10 PPB IN DIET FOR 4 WK, Promoter: NONE USED","39/166 (23%), 1/172 (0.6%), 97%, p<0.01"
